Test results published in PubChem BioAssay AID330 (DTP/NCI, 2004).
Several values for one entry are separate records, joined by “and”; a condition that tells them apart may be missing. Equal entries are not always repeated. Toxic doses and inconclusive results are not listed. Peptide text beside a SMILES is read from it.

Tested on: P388 leukemia ip, CD2F1 mice, survival T/C
Experiment: NCI In Vivo Anticancer Drug Screen. Data for tumor model P388 Leukemia (intraperitoneal) in CD2F1 (CDF1) mice
Settings: endpoint: median survival time, higher = longer survival
Method in brief: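 Mice carrying the transplanted tumor received test compound or vehicle. Survival was recorded in each group, and the value is the treated-group measurement divided by that of the vehicle-treated control group.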

[1] = dose: 50.0 mg/kg/injection, schedule: Q01DX005 (ip), vehicle: saline
[2] = dose: 100.0 mg/kg/injection, schedule: Q01DX005 (ip), vehicle: saline
[3] = dose: 200.0 mg/kg/injection, schedule: Q01DX005 (ip), vehicle: saline
[4] = dose: 50.0 mg/kg/injection, schedule: Q01DX005 (ip), vehicle: Klucel (hydroxypropylcellulose) (HPC)
[5] = dose: 100.0 mg/kg/injection, schedule: Q01DX005 (ip), vehicle: Klucel (hydroxypropylcellulose) (HPC)

CN=C1c2ccccc2C2(c3ccccc3)C1N2C (stereo not drawn)
T/C (dose: 100.0 mg/kg/injection, schedule: Q04DX003 (ip), vehicle: saline with Tween-80): 104 % of control
T/C (dose: 200.0 mg/kg/injection, schedule: Q04DX003 (ip), vehicle: saline with Tween-80): 100 % of control

C/C(=N/N)c1ccc(Br)cc1
T/C (dose: 6.25 mg/kg/injection, schedule: Q01DX009 (ip), vehicle: saline with Tween-80): 100 % of control
T/C (dose: 12.5 mg/kg/injection, schedule: Q01DX009 (ip), vehicle: saline with Tween-80): 104 % of control

C1CCN2CSCCCC2C1 (stereo not drawn)
T/C [1]: 100 % of control
T/C [2]: 104 % of control
T/C [3]: 111 % of control

CC1(C)CC(O)CC2(C)OC(=O)C=C12 (stereo not drawn)
T/C (dose: 2.5 mg/kg/injection, schedule: Q01DX009 (ip), vehicle: DMSO): 101 % of control
T/C (dose: 5.0 mg/kg/injection, schedule: Q01DX009 (ip), vehicle: DMSO): 103 % of control
T/C (dose: 10.0 mg/kg/injection, schedule: Q01DX009 (ip), vehicle: DMSO): 91 % of control

N#Cc1ccc(OC(=O)Nc2ccc(Cl)c(Cl)c2)cc1
T/C (dose: 60.0 mg/kg/injection, schedule: Q01DX005 (ip), vehicle: Klucel (hydroxypropylcellulose) (HPC)): 118 % of control
T/C (dose: 120.0 mg/kg/injection, schedule: Q01DX005 (ip), vehicle: Klucel (hydroxypropylcellulose) (HPC)): 107 % of control
T/C (dose: 240.0 mg/kg/injection, schedule: Q01DX005 (ip), vehicle: Klucel (hydroxypropylcellulose) (HPC)): 115 % of control

CCOc1ccc2nc3cc(N)ccc3c(N)c2c1
T/C (dose: 44.0 mg/kg/injection, schedule: Q04DX003 (ip), vehicle: saline): 118 % of control
T/C (dose: 66.0 mg/kg/injection, schedule: Q04DX003 (ip), vehicle: saline): 118 % of control
T/C (dose: 100.0 mg/kg/injection, schedule: Q04DX003 (ip), vehicle: saline): 118 % of control
T/C (dose: 150.0 mg/kg/injection, schedule: Q04DX003 (ip), vehicle: saline): 118 % of control

COc1cc2c(cc1OC)C[N+]1(C)CCc3cc(OC)c(OC)cc3C1C2 (stereo not drawn)
T/C (dose: 10.0 mg/kg/injection, schedule: Q01DX009 (ip), vehicle: saline): 111 % of control
T/C (dose: 20.0 mg/kg/injection, schedule: Q01DX009 (ip), vehicle: saline): 111 % of control

COc1ccc2c(C)cc(=O)oc2c1OCC(O)CN1CCOCC1 (stereo not drawn)
T/C (dose: 60.0 mg/kg/injection, schedule: Q01DX005 (ip), vehicle: saline): 110 % of control
T/C (dose: 120.0 mg/kg/injection, schedule: Q01DX005 (ip), vehicle: saline): 104 % of control
T/C (dose: 240.0 mg/kg/injection, schedule: Q01DX005 (ip), vehicle: saline): 103 % of control

CC(N)C(=O)NC(C)C(=O)NC(C)C(=O)O (stereo not drawn)
T/C [4]: 104 % of control
T/C [5]: 106 % of control
T/C (dose: 200.0 mg/kg/injection, schedule: Q01DX005 (ip), vehicle: Klucel (hydroxypropylcellulose) (HPC)): 101 % of control

Cn1c(=O)c2[nH]c(Cc3ccsc3)nc2n(C)c1=O
T/C (dose: 25.0 mg/kg/injection, schedule: Q01DX009 (ip), vehicle: Klucel (hydroxypropylcellulose) (HPC)): 110 % of control
T/C (dose: 50.0 mg/kg/injection, schedule: Q01DX009 (ip), vehicle: Klucel (hydroxypropylcellulose) (HPC)): 93 % of control
T/C (dose: 100.0 mg/kg/injection, schedule: Q01DX009 (ip), vehicle: Klucel (hydroxypropylcellulose) (HPC)): 99 % of control and 95 % of control

CCCN(CCC)C(C)C(O)c1cccc2ccccc12 (stereo not drawn)
T/C [1]: 97 % of control
T/C [2]: 109 % of control

CCCCCC1=CC2C(=O)NC(=O)NC12 (stereo not drawn)
T/C (dose: 12.5 mg/kg/injection, schedule: Q01DX005 (ip), vehicle: Klucel (hydroxypropylcellulose) (HPC)): 98 % of control
T/C (dose: 25.0 mg/kg/injection, schedule: Q01DX005 (ip), vehicle: Klucel (hydroxypropylcellulose) (HPC)): 97 % of control
T/C [4]: 105 % of control
T/C [5]: 96 % of control

N#Cc1ccc(C(=O)C=[N+]=[N-])cc1
T/C (dose: 100.0 mg/kg/injection, schedule: Q04DX003 (ip), vehicle: Klucel (hydroxypropylcellulose) (HPC)): 109 % of control
T/C (dose: 200.0 mg/kg/injection, schedule: Q04DX003 (ip), vehicle: Klucel (hydroxypropylcellulose) (HPC)): 93 % of control
T/C (dose: 400.0 mg/kg/injection, schedule: Q04DX003 (ip), vehicle: Klucel (hydroxypropylcellulose) (HPC)): 100 % of control

NCCCCC(NC(=O)C(N)CCCN=C(N)N)C(=O)O (stereo not drawn) (H-Arg-Lys-OH; configuration not given here)
T/C [1]: 94 % of control
T/C [2]: 106 % of control
T/C [3]: 100 % of control

CCN(Cc1cccc(S(=O)(=O)O)c1)c1ccc(C(=C2C=CC(=[N+](CC)Cc3cccc(S(=O)(=O)O)c3)C=C2)c2ccc(O)c(S(=O)(=O)O)c2)cc1
T/C (dose: 50.0 mg/kg/injection, schedule: Q01DX005 (ip), vehicle: saline with Tween-80): 97 % of control
T/C (dose: 100.0 mg/kg/injection, schedule: Q01DX005 (ip), vehicle: saline with Tween-80): 99 % of control
T/C (dose: 200.0 mg/kg/injection, schedule: Q01DX005 (ip), vehicle: saline with Tween-80): 100 % of control
